Experimental data reported in ChEMBL document CHEMBL5154804, “Species-Selective Targeting of Fungal Hsp90: Design, Synthesis, and Evaluation of Novel 4,5-Diarylisoxazole Derivatives for the Combination Treatment of Azole-Resistant Candidiasis” (J Med Chem, 2022).

What was measured:
Assay type in all cases: functional
Candida albicans [1] = test: Synergistic antifungal activity against fluconazole-resistant Candida albicans 632 assessed as inhibition of fungal growth in presence of fluconazole by checker board microdilution assay
Candida albicans [2] = test: Synergistic antifungal activity against fluconazole-resistant Candida albicans 901 assessed as inhibition of fungal growth in presence of fluconazole by checker board microdilution assay
Candida albicans [3] = test: Synergistic antifungal activity against fluconazole-resistant Candida albicans 100 assessed as inhibition of fungal growth in presence of fluconazole by checker board microdilution assay
Candida albicans [4] = test: Synergistic antifungal activity against fluconazole-resistant Candida albicans 103 assessed as inhibition of fungal growth in presence of fluconazole by checker board microdilution assay
Candida albicans [5] = test: Synergistic antifungal activity against fluconazole-resistant Candida albicans 311 assessed as inhibition of fungal growth in presence of fluconazole by checker board microdilution assay; also: test concentration or dose not given here
Candida albicans [6] = test: Synergistic antifungal activity against fluconazole-resistant Candida albicans 904 assessed as inhibition of fungal growth in presence of fluconazole by checker board microdilution assay; also: test concentration or dose not given here

Structure (SMILES) | MIC80 (Candida albicans [1]) | MIC80 (Candida albicans [2]) | MIC80 (Candida albicans [3]) | MIC80 (Candida albicans [4]) | MIC80 (Candida albicans [5]) | MIC80 (Candida albicans [6])
Cc1ccc(-c2cc(-c3onc(C(=O)N4CCCCC4)c3-c3ccc(CN4CCOCC4)cc3)c(O)cc2O)cc1 | > 64 µg/mL | > 64 µg/mL | > 64 µg/mL | > 64 µg/mL | > 64 µg/mL | > 64 µg/mL
CCNC(=O)c1noc(-c2cc(-c3ccc(OC)cc3)c(O)cc2O)c1-c1ccc(CN2CCOCC2)cc1 | 16 µg/mL | 8 µg/mL | 8 µg/mL | 8 µg/mL | 16 µg/mL | 4 µg/mL
CCNC(=O)c1noc(-c2cc(-c3ccc(Cl)cc3)c(O)cc2O)c1-c1ccc(CN2CCOCC2)cc1 | 8 µg/mL | 0.5 µg/mL | 4 µg/mL | 8 µg/mL | 16 µg/mL | 0.5 µg/mL
CCNC(=O)c1noc(-c2cc(-c3ccc(OC(F)(F)F)cc3)c(O)cc2O)c1-c1ccc(CN2CCOCC2)cc1 | > 64 µg/mL | > 64 µg/mL | > 64 µg/mL | > 64 µg/mL | > 64 µg/mL | > 64 µg/mL
Cc1ccc(-c2cc(-c3onc(C(=O)NC4CCC4)c3-c3ccc(CN4CCCCC4)cc3)c(O)cc2O)cc1 | 1 µg/mL | 4 µg/mL | 2 µg/mL | 4 µg/mL | 2 µg/mL | 2 µg/mL
Cc1ccc(-c2cc(-c3onc(C(=O)N(C)C)c3-c3ccc(CN4CCOCC4)cc3)c(O)cc2O)cc1 | 8 µg/mL | 4 µg/mL | 32 µg/mL | 16 µg/mL | 32 µg/mL | 8 µg/mL
CCNC(=O)c1noc(-c2cc(-c3ccc(C(C)C)cc3)c(O)cc2O)c1-c1ccc(CN2CCOCC2)cc1 | > 64 µg/mL | > 64 µg/mL | > 64 µg/mL | > 64 µg/mL | > 64 µg/mL | > 64 µg/mL
Cc1ccc(-c2cc(-c3onc(C(=O)N4CCC4)c3-c3ccc(CN4CCCCC4)cc3)c(O)cc2O)cc1 | > 64 µg/mL | 16 µg/mL | > 64 µg/mL | > 64 µg/mL | 16 µg/mL | > 64 µg/mL
CCNC(=O)c1noc(-c2cc(-c3cccc(C)c3)c(O)cc2O)c1-c1ccc(CN2CCOCC2)cc1 | 0.25 µg/mL | 0.5 µg/mL | 1 µg/mL | 1 µg/mL | 0.5 µg/mL | 0.25 µg/mL
CCNC(=O)c1noc(-c2cc(-c3ccc(C(C)(C)C)cc3)c(O)cc2O)c1-c1ccc(CN2CCOCC2)cc1 | > 64 µg/mL | > 64 µg/mL | > 64 µg/mL | > 64 µg/mL | > 64 µg/mL | > 64 µg/mL
Cc1ccc(-c2cc(-c3onc(C(=O)NC4COC4)c3-c3ccc(CN4CCOCC4)cc3)c(O)cc2O)cc1 | > 64 µg/mL | > 64 µg/mL | > 64 µg/mL | > 64 µg/mL | > 64 µg/mL | > 64 µg/mL
Cc1ccc(-c2cc(-c3onc(C(=O)N4CCC4)c3-c3ccc(CN4CCOCC4)cc3)c(O)cc2O)cc1 | > 64 µg/mL | 16 µg/mL | 8 µg/mL | > 64 µg/mL | > 64 µg/mL | 16 µg/mL
CCCNC(=O)c1noc(-c2cc(-c3ccc(C)cc3)c(O)cc2O)c1-c1ccc(CN2CCOCC2)cc1 | 32 µg/mL | 4 µg/mL | 16 µg/mL | 32 µg/mL | 64 µg/mL | 4 µg/mL
Cc1ccc(-c2cc(-c3onc(C(=O)N(C)C)c3-c3ccc(CN4CCCCC4)cc3)c(O)cc2O)cc1 | 8 µg/mL | 16 µg/mL | 8 µg/mL | 16 µg/mL | 16 µg/mL | 8 µg/mL
CCNC(=O)c1noc(-c2cc(-c3ccc(C)cc3)c(O)cc2O)c1-c1ccc(CN2CCC(N(C)C)CC2)cc1 | 64 µg/mL | 16 µg/mL | 64 µg/mL | 4 µg/mL | 2 µg/mL | 4 µg/mL
CCNC(=O)c1noc(-c2cc(-c3ccc(C)cc3)c(O)cc2O)c1-c1ccc(CNC2CCOCC2)cc1 | > 64 µg/mL | > 64 µg/mL | > 64 µg/mL | > 64 µg/mL | > 64 µg/mL | > 64 µg/mL
CCNC(=O)c1noc(-c2cc(-c3ccccc3CC)c(O)cc2O)c1-c1ccc(CN2CCOCC2)cc1 | > 64 µg/mL | > 64 µg/mL | > 64 µg/mL | > 64 µg/mL | > 64 µg/mL | > 64 µg/mL
Cc1ccc(-c2cc(-c3onc(C(=O)N4CCCC4)c3-c3ccc(CN4CCOCC4)cc3)c(O)cc2O)cc1 | > 64 µg/mL | > 64 µg/mL | > 64 µg/mL | > 64 µg/mL | > 64 µg/mL | > 64 µg/mL
Cc1ccc(-c2cc(-c3onc(C(=O)NC4CC4)c3-c3ccc(CN4CCOCC4)cc3)c(O)cc2O)cc1 | 32 µg/mL | 8 µg/mL | 4 µg/mL | 16 µg/mL | > 64 µg/mL | 4 µg/mL
CCNC(=O)c1noc(-c2cc(-c3cccc(F)c3)c(O)cc2O)c1-c1ccc(CN2CCOCC2)cc1 | 2 µg/mL | 2 µg/mL | 8 µg/mL | 16 µg/mL | 4 µg/mL | 1 µg/mL

Structure (SMILES) | MIC80 (Candida albicans [1]) | MIC80 (Candida albicans [2]) | MIC80 (Candida albicans [3]) | MIC80 (Candida albicans [4]) | MIC80 (Candida albicans [5]) | MIC80 (Candida albicans [6])
CCNC(=O)c1noc(-c2cc(-c3ccc(C(F)(F)F)cc3)c(O)cc2O)c1-c1ccc(CN2CCOCC2)cc1 | > 64 µg/mL | > 64 µg/mL | > 64 µg/mL | > 64 µg/mL | > 64 µg/mL | > 64 µg/mL
CCNC(=O)c1noc(-c2cc(-c3ccc(C)cc3)c(O)cc2O)c1-c1ccc(CNC2CCN(C)CC2)cc1 | 8 µg/mL | 16 µg/mL | 64 µg/mL | 16 µg/mL | 64 µg/mL | 64 µg/mL
CCCNC(=O)c1noc(-c2cc(-c3ccc(C)cc3)c(O)cc2O)c1-c1ccc(CN2CCCCC2)cc1 | 4 µg/mL | 4 µg/mL | 8 µg/mL | 4 µg/mL | 8 µg/mL | 2 µg/mL
CCN(CC)C(=O)c1noc(-c2cc(-c3ccc(C)cc3)c(O)cc2O)c1-c1ccc(CN2CCCCC2)cc1 | 4 µg/mL | 4 µg/mL | 4 µg/mL | 2 µg/mL | 4 µg/mL | 8 µg/mL
CCNC(=O)c1noc(-c2cc(-c3ccc(-c4ccccc4)cc3)c(O)cc2O)c1-c1ccc(CN2CCOCC2)cc1 | > 64 µg/mL | > 64 µg/mL | > 64 µg/mL | > 64 µg/mL | > 64 µg/mL | > 64 µg/mL
CCNC(=O)c1noc(-c2cc(-c3ccccc3C(C)C)c(O)cc2O)c1-c1ccc(CN2CCOCC2)cc1 | > 64 µg/mL | > 64 µg/mL | > 64 µg/mL | > 64 µg/mL | > 64 µg/mL | > 64 µg/mL
CCNC(=O)c1noc(-c2cc(-c3ccc(C)cc3)c(O)cc2O)c1-c1ccc(CN2CCC(N3CCOCC3)CC2)cc1 | > 64 µg/mL | > 64 µg/mL | > 64 µg/mL | > 64 µg/mL | > 64 µg/mL | > 64 µg/mL
CCNC(=O)c1noc(-c2cc(-c3cccc(C(F)(F)F)c3)c(O)cc2O)c1-c1ccc(CN2CCOCC2)cc1 | > 64 µg/mL | > 64 µg/mL | > 64 µg/mL | > 64 µg/mL | > 64 µg/mL | > 64 µg/mL
CCNC(=O)c1noc(-c2cc(-c3cccc(OC(F)(F)F)c3)c(O)cc2O)c1-c1ccc(CN2CCOCC2)cc1 | > 64 µg/mL | > 64 µg/mL | > 64 µg/mL | > 64 µg/mL | > 64 µg/mL | > 64 µg/mL
Cc1ccc(-c2cc(-c3onc(C(=O)NC4CCC4)c3-c3ccc(CN4CCOCC4)cc3)c(O)cc2O)cc1 | 64 µg/mL | 8 µg/mL | 16 µg/mL | 32 µg/mL | > 64 µg/mL | 4 µg/mL
CCNC(=O)c1noc(-c2cc(-c3ccc(C)cc3)c(O)cc2O)c1-c1ccc(CN2CCS(=O)(=O)CC2)cc1 | > 64 µg/mL | 64 µg/mL | > 64 µg/mL | > 64 µg/mL | 16 µg/mL | 32 µg/mL
CCNC(=O)c1noc(-c2cc(-c3ccc(C)cc3)c(O)cc2O)c1-c1ccc(CNC2CCCC2)cc1 | > 64 µg/mL | > 64 µg/mL | > 64 µg/mL | > 64 µg/mL | > 64 µg/mL | > 64 µg/mL
CCNC(=O)c1noc(-c2cc(-c3ccc(C)cc3)c(O)cc2O)c1-c1ccc(CN2CCCC2)cc1 | 4 µg/mL | 1 µg/mL | 2 µg/mL | 4 µg/mL | 4 µg/mL | 2 µg/mL
CCNC(=O)c1noc(-c2cc(-c3ccc(F)cc3)c(O)cc2O)c1-c1ccc(CN2CCOCC2)cc1 | 4 µg/mL | 2 µg/mL | 16 µg/mL | 16 µg/mL | 16 µg/mL | 1 µg/mL
Cc1ccc(-c2cc(-c3onc(C(=O)NC(C)C)c3-c3ccc(CN4CCCCC4)cc3)c(O)cc2O)cc1 | 2 µg/mL | 4 µg/mL | 8 µg/mL | 4 µg/mL | 8 µg/mL | 2 µg/mL
Cc1ccc(-c2cc(-c3onc(C(=O)NC4COC4)c3-c3ccc(CN4CCCCC4)cc3)c(O)cc2O)cc1 | > 64 µg/mL | 32 µg/mL | > 64 µg/mL | > 64 µg/mL | > 64 µg/mL | > 64 µg/mL
CCN(CC)C(=O)c1noc(-c2cc(-c3ccc(C)cc3)c(O)cc2O)c1-c1ccc(CN2CCOCC2)cc1 | 8 µg/mL | 8 µg/mL | 8 µg/mL | 16 µg/mL | 8 µg/mL | 8 µg/mL
Cc1ccc(-c2cc(-c3onc(C(=O)NC(C)C)c3-c3ccc(CN4CCOCC4)cc3)c(O)cc2O)cc1 | 8 µg/mL | 8 µg/mL | 16 µg/mL | 64 µg/mL | 64 µg/mL | 4 µg/mL
CCNC(=O)c1noc(-c2cc(-c3ccc(CC)cc3)c(O)cc2O)c1-c1ccc(CN2CCOCC2)cc1 | 2 µg/mL | 0.5 µg/mL | 4 µg/mL | 2 µg/mL | 1 µg/mL | 0.5 µg/mL
